Laboratory results reported in US11453632B2, “1-phenyl-2-phenylethane derivative” (KAO CORPORATION, priority 2018, dated 2022).

Legend:
ERβ = target: T1, ERβ (Homo sapiens, UniProt Q92731); assay: Ability to activate transcription mediated by ERβ (pcDNA3-ERβ, pERE luciferase, HEK293 cells); type: cell-based; conditions: negative control 0.001475
T1 construct: host or cells: HEK293
Experimental: 1) Experimental Method (Measurement of Transcriptional Activity Mediated by ERs)
HEK293 cells were inoculated at a cell density of 4.0×10^4 cells/well to a 96-well plate. After 12 hours therefrom, the medium was replaced with a culture solution (DMEM containing 5% (v/v) charcoal-treated serum). The cells were cotransfected with pcDNA3-ERα or pcDNA3-ERβ (Promega Corp.) and pERE and pRL-CMV (Promega Corp.) using Lipofectamine 2000 (Invitrogen Corp.) according to the protocol attached to the product. 24 hours after transfection, the medium was replaced with a culture medium containing a test sample, followed by culture for another 24 hours. Then, luciferase activity was measured using Dual-Glo™ Luciferase Assay System (Promega Corp.) according to the attached protocol. The luminescence intensity of firefly luciferase (index for the ability to activate transcription mediated by ERE) was divided by the luminescence intensity of Renilla reniformis luciferase (index for the transfection efficiency of the plasmids) to calculate a relative light unit (RLU).

ERβ LBD = target: T2, ERβ LBD (Homo sapiens, UniProt Q92731); assay: Ability to bind to ERβ: pBIND-ERβ LBD / GAL4 luciferase reporter in HEK293 cells; type: cell-based; design: key: RLU = firefly luminescence / Renilla luminescence; conditions: negative control 0.0118997
T2 construct: host or cells: HEK293
T2 sequence (Q92731 264-498 limits assumed): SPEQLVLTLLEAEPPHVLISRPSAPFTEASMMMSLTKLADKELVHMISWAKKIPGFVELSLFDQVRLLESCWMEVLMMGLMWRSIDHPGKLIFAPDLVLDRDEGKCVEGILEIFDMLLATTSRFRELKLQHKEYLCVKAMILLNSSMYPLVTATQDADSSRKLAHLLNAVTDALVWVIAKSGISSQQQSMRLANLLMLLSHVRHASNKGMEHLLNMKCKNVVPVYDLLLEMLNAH
Experimental: This evaluation system is a system exploiting difference in the sequence of the ligand binding domain (LBD) between ERα and ERβ (J Endocrinol 163: 379-383 (1999)), and enables selective activation of ERβ to be evaluated by determining the binding of a ligand to LBD and the activation of ER.
(§1) A human kidney-derived cell line HEK293 was cultured (37° C., 5% CO2) in Dulbecco's modified Eagle medium (hereinafter, abbreviated to DMEM) containing 10% (v/v) fetal bovine serum (FBS) and penicillin/streptomycin.
(§2) 2) Measurement of Binding Activity Against ERs
(§3) This measurement was carried out according to the method described in JP-B-5990058. Specifically, HEK293 cells were inoculated at a cell density of 4.0×10^4 cells/well to a 96-well plate. After 12 hours therefrom, the medium was replaced with a culture solution (DMEM containing 5% (v/v) charcoal-treated serum). The cells were cotransfected with pBIND-ERα for the expression of ERα LBD or pBIND-ERβ for the expression of ERβ LBD (Promega Corp.) and pGL4.35[luc2P/9XGAL4UAS/Hygro](Promega Corp.) using Lipofectamine 2000 (Invitrogen Corp.) according to the protocol attached to the product. 24 hours after transfection, the medium was replaced with a culture solution containing a test sample, followed by culture for another 24 hours. The activity measurement of firefly luciferase (index for the ligand binding activity of ER) and Renilla reniformis luciferase (index for the transfection efficiency of the plasmids) was carried out using Dual-Glo™ Luciferase Assay System (Promega Corp.) according to the attached protocol. The luminescence intensity of the firefly luciferase was divided by the luminescence intensity of the Renilla reniformis luciferase to calculate a relative light unit (RLU).

ERα LBD = target: T3, ERα LBD (Homo sapiens, UniProt P03372); assay: Ability to bind to ERα: pBIND-ERα LBD / GAL4 luciferase reporter in HEK293 cells; type: cell-based; design: key: firefly luciferase / Renilla luciferase luminescence ratio; conditions: negative control 0.00847035
T3 construct: host or cells: HEK293
T3 sequence (P03372 311-547 limits assumed): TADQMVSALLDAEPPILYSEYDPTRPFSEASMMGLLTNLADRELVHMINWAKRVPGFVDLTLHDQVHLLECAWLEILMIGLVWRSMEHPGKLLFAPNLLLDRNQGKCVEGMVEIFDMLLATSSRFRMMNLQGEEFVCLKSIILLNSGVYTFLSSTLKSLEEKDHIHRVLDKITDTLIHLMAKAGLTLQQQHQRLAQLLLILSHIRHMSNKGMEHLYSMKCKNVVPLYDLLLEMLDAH
Experimental: as §1, §2
as §3, with “Specifically,” for “This measurement was carried out according to the method described in JP-B-5990058. Specifically,”

T1 sequence (Q92731 whole entry): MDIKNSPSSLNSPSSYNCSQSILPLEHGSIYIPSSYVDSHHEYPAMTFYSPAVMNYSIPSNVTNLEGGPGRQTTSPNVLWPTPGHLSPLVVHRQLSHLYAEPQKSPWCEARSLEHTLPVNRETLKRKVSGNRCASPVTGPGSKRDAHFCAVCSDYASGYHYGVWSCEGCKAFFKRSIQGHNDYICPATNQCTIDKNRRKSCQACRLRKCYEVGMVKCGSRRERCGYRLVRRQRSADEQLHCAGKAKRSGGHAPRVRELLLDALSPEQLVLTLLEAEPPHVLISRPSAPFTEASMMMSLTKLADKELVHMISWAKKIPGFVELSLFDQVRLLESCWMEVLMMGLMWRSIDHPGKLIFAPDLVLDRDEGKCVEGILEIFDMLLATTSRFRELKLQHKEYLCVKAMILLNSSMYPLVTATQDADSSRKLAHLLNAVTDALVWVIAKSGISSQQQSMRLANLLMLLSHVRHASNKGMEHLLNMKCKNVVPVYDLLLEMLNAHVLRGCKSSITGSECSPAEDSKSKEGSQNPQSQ

**Q.** Which “relative light unit (RLU), transcription activation ERβ” value (ERβ; 0.01 pM) does the source give for `Oc1ccc(CC(C=C(F)F)c2ccc(O)cc2F)c(F)c1` (stereo not drawn) [Compound 17-F, 4,4′-(4,4-difluorobut-3-ene-1,2-diyl)bis(3-fluorophenol)] here?
**A.** 0.002468

**Q.** And the “relative light unit (RLU), transcription activation ERβ” value (ERβ; 0.1 pM)?
**A.** 0.004255

**Q.** What about the “relative light unit (RLU), transcription activation ERβ” value (ERβ; 1 pM) of the same molecule?
**A.** 0.01104

**Q.** And the “relative light unit (RLU), transcription activation ERβ” value (ERβ; 10 pM)?
**A.** 0.03023

**Q.** And the “relative light unit (RLU), transcription activation ERβ” value (ERβ; 100 pM)?
**A.** 0.03238

**Q.** What about the “relative light unit (RLU), transcription activation ERβ” value (ERβ; 1000 pM) of the same molecule?
**A.** 0.03342

**Q.** And the “relative light unit (RLU), transcription activation ERβ” value (ERβ; 10000 pM)?
**A.** 0.03507

**Q.** What about the “relative light unit (RLU), ligand binding activity ERβ” value (ERβ LBD; 0.01 nM) of the same molecule?
**A.** 0.4273

**Q.** What about the “relative light unit (RLU), ligand binding activity ERβ” value (ERβ LBD; 0.1 nM) of the same molecule?
**A.** 1.771

**Q.** And the “relative light unit (RLU), ligand binding activity ERβ” value (ERβ LBD; 1 nM)?
**A.** 2.021

**Q.** And the “relative light unit (RLU), ligand binding activity ERβ” value (ERβ LBD; 10 nM)?
**A.** 2.367

**Q.** What about the “relative light unit (RLU), ligand binding activity ERβ” value (ERβ LBD; 100 nM) of the same molecule?
**A.** 2.186

**Q.** What about the melting point of the same molecule?
**A.** 90 to 91 °C

**Q.** And the “relative light unit (RLU), ligand binding activity ERα” value (ERα LBD; 0.01 nM)?
**A.** 0.02573

**Q.** What about the “relative light unit (RLU), ligand binding activity ERα” value (ERα LBD; 0.1 nM) of the same molecule?
**A.** 0.06025

**Q.** What about the “relative light unit (RLU), ligand binding activity ERα” value (ERα LBD; 1 nM) of the same molecule?
**A.** 0.2198

**Q.** What about the “relative light unit (RLU), ligand binding activity ERα” value (ERα LBD; 10 nM) of the same molecule?
**A.** 1.873

**Q.** And the “relative light unit (RLU), ligand binding activity ERα” value (ERα LBD; 100 nM)?
**A.** 3.193
